# Data: patent publication US20230089073A1 (Carmot Therapeutics, Inc., priority 2021, published 2023)
# Molecular target: T1, human GLP-1 receptor (Homo sapiens, UniProt P43220)
# T1 construct: expressed in transfected cells
# Assay: GLP-1R cAMP Assay
# Format: cell-based
# Conditions: cAMP accumulation in CHO cells stably overexpressing the human GLP-1 receptor; 30 min treatment; HitHunter cAMP kit; read-out: EC50
# Method in brief: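 CHO cells stably overexpressing human GLP-1R, 10,000 cells/well, treated with compound in 20-point dose response in triplicate for 30 min. cAMP accumulation read by enzyme-complementation luminescence after lysis and overnight incubation; dose-response curves fitted.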
# T1 sequence (P43220 24-463): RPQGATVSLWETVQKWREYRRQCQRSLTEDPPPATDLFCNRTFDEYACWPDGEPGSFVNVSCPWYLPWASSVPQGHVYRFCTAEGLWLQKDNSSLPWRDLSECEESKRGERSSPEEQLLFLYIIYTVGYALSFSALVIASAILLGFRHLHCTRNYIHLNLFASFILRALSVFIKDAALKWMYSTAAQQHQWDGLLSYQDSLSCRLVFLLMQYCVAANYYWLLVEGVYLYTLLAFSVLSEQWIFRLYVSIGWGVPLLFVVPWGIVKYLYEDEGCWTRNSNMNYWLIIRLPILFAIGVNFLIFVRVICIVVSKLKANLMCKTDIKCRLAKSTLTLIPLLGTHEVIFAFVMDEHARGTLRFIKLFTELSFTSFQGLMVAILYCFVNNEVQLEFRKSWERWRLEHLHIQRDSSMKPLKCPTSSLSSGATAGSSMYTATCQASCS
row,SMILES,EC50
1,"O=C(O)c1ccc2nc(CN3CCc4c([nH]c5c(OCc6ccc(Cl)cc6F)cccc45)C3)n(C[C@@H]3CCO3)c2c1 [Example 121, (S)-2-((8-((4-Chloro-2-fluorobenzyl)oxy)-1,3,4,9-tetrahydro-2H-pyrido[3,4-b]indol-2-yl)methyl)-1-(oxetan-2-ylmethyl)-1H-benzo[d]imidazole-6-carboxylic acid]",> 500 nM
2,"CCn1cncc1Cn1c(CN2CCC(Cc3ccnc(COc4ccc(Cl)cc4Cl)c3)CC2)nc2ccc(C(=O)O)cc21 [Example 128, 2-((4-((2-((2,4-Dichlorophenoxy)methyl)pyridin-4-yl)methyl)piperidin-1-yl)methyl)-1-((1-ethyl-1H-imidazol-5-yl)methyl)-1H-benzo[d]imidazole-6-carboxylic acid]",< 50 nM
3,"CCn1cncc1Cn1c(CN2CCC(C(F)(F)c3cccc(COc4ccc(C)cc4Cl)c3)CC2)nc2ccc(C(=O)O)cc21 [Example 132, 2-((4-((3-((2-Chloro-4-methylphenoxy)methyl)phenyl)difluoromethyl)piperidin-1-yl)methyl)-1-((1-ethyl-1H-imidazol-5-yl)methyl)-1H-benzo[d]imidazole-6-carboxylic acid]",< 50 nM
4,"O=C(O)c1ccc2nc(CN3CCC(Cc4cnc(COc5ncc(C6CC6)cc5Cl)o4)CC3)n(C[C@@H]3CCO3)c2c1 [Example 136, (S)-2-((4-((2-(((3-Chloro-5-cyclopropylpyridin-2-yl)oxy)methyl)oxazol-5-yl)methyl)piperidin-1-yl)methyl)-1-(oxetan-2-ylmethyl)-1H-benzo[d]imidazole-6-carboxylic acid]",< 50 nM
5,"Cc1ccc(OCc2cccc(CC3CCN(Cc4nc5ccc(C(=O)O)cc5n4C[C@@H]4CCO4)CC3)n2)c(CO)c1 [Example 146, (S)-2-((4-((6-((2-(Hydroxymethyl)-4-methylphenoxy)methyl)pyridin-2-yl)methyl)piperidin-1-yl)methyl)-1-(oxetan-2-ylmethyl)-1H-benzo[d]imidazole-6-carboxylic acid]",< 50 nM
6,"CCn1cncc1Cn1c(CN2CCC(CO)(Cc3ccnc(COc4ccc(Cl)cc4Cl)c3)CC2)nc2ccc(C(=O)O)cc21 [Example 150, 2-((4-((2-((2,4-Dichlorophenoxy)methyl)pyridin-4-yl)methyl)-4-(hydroxymethyl)piperidin-1-yl)methyl)-1-((1-ethyl-1H-imidazol-5-yl)methyl)-1H-benzo[d]imidazole-6-carboxylic acid]",< 50 nM
7,"O=C(O)c1ccc2nc(CN3CCC(Cc4cccc(COc5ccc(C6CC6)cc5Cl)n4)CC3)n(C[C@@H]3CCO3)c2c1 [Example 152, (S)-2-((4-((6-((2-Chloro-4-cyclopropylphenoxy)methyl)pyridin-2-yl)methyl)piperidin-1-yl)methyl)-1-(oxetan-2-ylmethyl)-1H-benzo[d]imidazole-6-carboxylic acid]",< 50 nM
8,"O=C(O)c1ccc2nc(CN3CCC(Cc4cnc(COc5cnc(C6CC6)cc5Cl)o4)CC3)n(C[C@@H]3CCO3)c2c1 [Example 154, (S)-2-((4-((2-(((4-Chloro-6-cyclopropylpyridin-3-yl)oxy)methyl)oxazol-5-yl)methyl)piperidin-1-yl)methyl)-1-(oxetan-2-ylmethyl)-1H-benzo[d]imidazole-6-carboxylic acid]",50 to 500 nM
9,"CCn1cncc1Cn1c(CN2CCC(=Cc3ccnc(COc4ccc(Cl)cc4Cl)c3)CC2)nc2ccc(C(=O)O)cc21 [Example 155, 2-((4-((2-((2,4-Dichlorophenoxy)methyl)pyridin-4-yl)methylene)piperidin-1-yl)methyl)-1-((1-ethyl-1H-imidazol-5-yl)methyl)-1H-benzo[d]imidazole-6-carboxylic acid]",< 50 nM
10,"CCn1cncc1Cn1c(CN2CCC(Oc3cccc(COc4ccc(Cl)cc4Cl)c3)CC2)nc2ccc(C(=O)O)cc21 [Example 157, 2-((4-(3-((2,4-Dichlorophenoxy)methyl)phenoxy)piperidin-1-yl)methyl)-1-((1-ethyl-1H-imidazol-5-yl)methyl)-1H-benzo[d]imidazole-6-carboxylic acid]",< 50 nM

# Further lines, results first:
row,EC50,SMILES
1,< 50 nM,"CCn1cncc1Cn1c(CN2CCC(C)(Cc3ccnc(COc4ccc(Cl)cc4Cl)c3)CC2)nc2ccc(C(=O)O)cc21 [Example 163, 2-((4-((2-((2,4-Dichlorophenoxy)methyl)pyridin-4-yl)methyl)-4-methylpiperidin-1-yl)methyl)-1-((1-ethyl-1H-imidazol-5-yl)methyl)-1H-benzo[d]imidazole-6-carboxylic acid]"
2,< 50 nM,"CCn1cncc1Cn1c(CN2CCC(CF)(Cc3ccnc(COc4ccc(Cl)cc4Cl)c3)CC2)nc2ccc(C(=O)O)cc21 [Example 164, 2-((4-((2-((2,4-Dichlorophenoxy)methyl)pyridin-4-yl)methyl)-4-(fluoromethyl)piperidin-1-yl)methyl)-1-((1-ethyl-1H-imidazol-5-yl)methyl)-1H-benzo[d]imidazole-6-carboxylic acid]"
3,50 to 500 nM,"O=C(O)c1ccc2nc(CN3CCC(Oc4cc(COc5ccc(Cl)cc5Cl)ccn4)CC3)n(C[C@@H]3CCO3)c2c1 [Example 178, (S)-2-((4-((4-((2,4-Dichlorophenoxy)methyl)pyridin-2-yl)oxy)piperidin-1-yl)methyl)-1-(oxetan-2-ylmethyl)-1H-benzo[d]imidazole-6-carboxylic acid]"
4,< 50 nM,"C[C@H]1CN(C(=O)c2cnc(COc3ccc(Cl)cc3Cl)o2)CCN1Cc1nc2ccc(C(=O)O)cc2n1C[C@@H]1CCO1 [Example 186, 2-(((S)-4-(2-((2,4-Dichlorophenoxy)methyl)oxazole-5-carbonyl)-2-methylpiperazin-1-yl)methyl)-1-(((S)-oxetan-2-yl)methyl)-1H-benzo[d]imidazole-6-carboxylic acid]"
5,< 50 nM,"CCn1cncc1Cn1c(CN2CCC(C#N)(Cc3ccnc(COc4ccc(Cl)cc4Cl)c3)CC2)nc2ccc(C(=O)O)cc21 [Example 189, 2-((4-Cyano-4-((2-((2,4-dichlorophenoxy)methyl)pyridin-4-yl)methyl)piperidin-1-yl)methyl)-1-((1-ethyl-1H-imidazol-5-yl)methyl)-1H-benzo[d]imidazole-6-carboxylic acid]"
6,< 50 nM,"O=C(O)c1ccc2nc(CN3CCC(Oc4cccc(COc5ccc(Cl)cc5Cl)n4)CC3)n(C[C@@H]3CCO3)c2c1 [Example 198, (S)-2-((4-((6-((2,4-Dichlorophenoxy)methyl)pyridin-2-yl)oxy)piperidin-1-yl)methyl)-1-(oxetan-2-ylmethyl)-1H-benzo[d]imidazole-6-carboxylic acid]"
7,< 50 nM,"N#Cc1cc(F)ccc1OCc1cccc(OC2CCN(Cc3nc4ccc(C(=O)O)cc4n3C[C@@H]3CCO3)CC2)c1 [Example 206, (S)-2-((4-(3-((2-Cyano-4-fluorophenoxy)methyl)phenoxy)piperidin-1-yl)methyl)-1-(oxetan-2-ylmethyl)-1H-benzo[d]imidazole-6-carboxylic acid]"
8,< 50 nM,"O=C(O)c1ccc2nc(CN3CCC(Oc4cccc(COc5ccc(Cl)cc5Cl)c4)CC3)n(Cc3ccno3)c2c1 [Example 208, 2-((4-(3-((2,4-Dichlorophenoxy)methyl)phenoxy)piperidin-1-yl)methyl)-1-(isoxazol-5-ylmethyl)-1H-benzo[d]imidazole-6-carboxylic acid]"
9,< 50 nM,"O=C(O)c1ccc2nc(CN3CCC(Oc4cccc(COc5ccc(Cl)cc5Cl)c4)CC3)n(Cc3cnco3)c2c1 [Example 216, 2-((4-(3-((2,4-Dichlorophenoxy)methyl)phenoxy)piperidin-1-yl)methyl)-1-(oxazol-5-ylmethyl)-1H-benzo[d]imidazole-6-carboxylic acid]"
10,< 50 nM,"O=C(O)c1ccc2nc(CN3CCC(Oc4ccnc(COc5ccc(F)cc5Cl)c4)CC3)n(C[C@@H]3CCO3)c2c1 [Example 220, (S)-2-((4-((2-((2-Chloro-4-fluorophenoxy)methyl)pyridin-4-yl)oxy)piperidin-1-yl)methyl)-1-(oxetan-2-ylmethyl)-1H-benzo[d]imidazole-6-carboxylic acid]"
11,< 50 nM,"CCn1cncc1Cn1c(CN2CCC(Oc3ccnc(COc4ccc(Cl)cc4F)c3)CC2)nc2ccc(C(=O)O)cc21 [Example 230, 2-((4-((2-((4-Chloro-2-fluorophenoxy)methyl)pyridin-4-yl)oxy)piperidin-1-yl)methyl)-1-((1-ethyl-1H-imidazol-5-yl)methyl)-1H-benzo[d]imidazole-6-carboxylic acid]"
12,< 50 nM,"CCn1cncc1Cn1c(CN2CCC(Oc3ccnc(COc4ccc(C#N)cc4F)n3)CC2)nc2ccc(C(=O)O)cc21 [Example 261, 2-((4-((2-((4-Cyano-2-fluorophenoxy)methyl)pyrimidin-4-yl)oxy)piperidin-1-yl)methyl)-1-((1-ethyl-1H-imidazol-5-yl)methyl)-1H-benzo[d]imidazole-6-carboxylic acid]"
13,< 50 nM,"N#Cc1ccc(OCc2nccc(OC3CCN(Cc4nc5ccc(C(=O)O)cc5n4C[C@@H]4CCO4)CC3)n2)c(F)c1 [Example 262, (S)-2-((4-((2-((4-Cyano-2-fluorophenoxy)methyl)pyrimidin-4-yl)oxy)piperidin-1-yl)methyl)-1-(oxetan-2-ylmethyl)-1H-benzo[d]imidazole-6-carboxylic acid]"
14,50 to 500 nM,"CCn1cncc1Cn1c(CN2CCC(Oc3cccnc3COc3ccc(Cl)cc3Cl)CC2)nc2ccc(C(=O)O)cc21 [Example 271, 2-((4-((2-((2,4-Dichlorophenoxy)methyl)pyridin-3-yl)oxy)piperidin-1-yl)methyl)-1-((1-ethyl-1H-imidazol-5-yl)methyl)-1H-benzo[d]imidazole-6-carboxylic acid]"
15,< 50 nM,"CCn1cncc1Cn1c(CN2CC[C@H](Oc3ccnc(COc4ccc(Cl)cc4Cl)c3)C[C@@H]2C)nc2ccc(C(=O)O)cc21 [Example 274, 2-(((2S,4S)-4-((2-((2,4-Dichlorophenoxy)methyl)pyridin-4-yl)oxy)-2-methylpiperidin-1-yl)methyl)-1-((1-ethyl-1H-imidazol-5-yl)methyl)-1H-benzo[d]imidazole-6-carboxylic acid]"
